# Test results taken from ChEMBL document CHEMBL3132769, “Fragment growing to retain or alter the selectivity of anchored kinase hinge-binding fragments” (Medchemcomm, 2014).
# Assays:
# [1] = target: T1, Aurora kinase C (Homo sapiens) (UniProt Q9UQB9); assay: Inhibition of human full length AurC expressed in baculovirus assessed as substrate phosphorylation using fluorescence-labelled peptides as substrate at 0.2 uM after 90 mins by microfluidic peptide phosphorylation assay
# T1 sequence (whole entry): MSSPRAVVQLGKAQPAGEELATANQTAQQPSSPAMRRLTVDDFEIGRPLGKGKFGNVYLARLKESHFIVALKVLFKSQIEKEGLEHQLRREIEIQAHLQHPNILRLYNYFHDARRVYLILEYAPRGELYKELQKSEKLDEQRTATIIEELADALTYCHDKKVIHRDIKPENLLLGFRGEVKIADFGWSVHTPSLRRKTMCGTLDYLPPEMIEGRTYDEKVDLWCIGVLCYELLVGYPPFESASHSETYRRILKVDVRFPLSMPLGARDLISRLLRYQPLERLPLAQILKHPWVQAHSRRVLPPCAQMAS
# [2] = target: T2, Aurora kinase A (Homo sapiens) (UniProt O14965); assay: Inhibition of human full length AurA expressed in baculovirus assessed as substrate phosphorylation using fluorescence-labelled peptides as substrate at 0.2 uM after 90 mins by microfluidic peptide phosphorylation assay
# T2 sequence (whole entry): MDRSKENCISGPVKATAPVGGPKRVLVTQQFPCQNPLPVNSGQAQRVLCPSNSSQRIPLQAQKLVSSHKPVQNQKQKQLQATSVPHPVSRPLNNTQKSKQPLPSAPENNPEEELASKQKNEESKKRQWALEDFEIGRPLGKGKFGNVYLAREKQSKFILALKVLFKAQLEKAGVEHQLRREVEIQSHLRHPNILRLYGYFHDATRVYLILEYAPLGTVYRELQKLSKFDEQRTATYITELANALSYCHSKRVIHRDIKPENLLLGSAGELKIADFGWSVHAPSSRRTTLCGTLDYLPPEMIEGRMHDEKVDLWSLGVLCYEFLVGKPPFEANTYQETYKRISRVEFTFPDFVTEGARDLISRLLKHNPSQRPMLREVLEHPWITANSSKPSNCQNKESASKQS
# [3] = target: Rho-associated protein kinase 2 (Homo sapiens) (UniProt O75116); assay: Inhibition of human ROCK2 catalytic domain expressed in baculovirus assessed as substrate phosphorylation using fluorescence-labelled peptides as substrate at 420 uM after 90 mins by microfluidic peptide phosphorylation assay
# [4] = target: T3, Calcium/calmodulin-dependent protein kinase type IV (Homo sapiens) (UniProt Q16566); assay: Inhibition of human full length CAMK4 expressed in baculovirus assessed as substrate phosphorylation using fluorescence-labelled peptides as substrate at 420 uM after 90 mins by microfluidic peptide phosphorylation assay
# T3 sequence (whole entry): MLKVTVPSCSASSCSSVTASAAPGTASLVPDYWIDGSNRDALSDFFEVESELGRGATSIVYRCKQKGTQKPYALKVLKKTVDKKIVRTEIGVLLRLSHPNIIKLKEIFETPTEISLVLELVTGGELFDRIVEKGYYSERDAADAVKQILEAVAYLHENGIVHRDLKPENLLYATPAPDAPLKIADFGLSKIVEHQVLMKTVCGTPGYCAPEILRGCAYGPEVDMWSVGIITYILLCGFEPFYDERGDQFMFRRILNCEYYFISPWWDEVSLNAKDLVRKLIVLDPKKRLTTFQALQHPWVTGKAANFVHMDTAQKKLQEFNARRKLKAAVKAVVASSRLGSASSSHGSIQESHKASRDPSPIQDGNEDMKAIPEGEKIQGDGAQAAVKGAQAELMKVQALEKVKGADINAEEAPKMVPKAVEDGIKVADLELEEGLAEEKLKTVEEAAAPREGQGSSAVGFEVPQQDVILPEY
# [5] = target: Tyrosine-protein kinase HCK (Homo sapiens) (UniProt P08631); assay: Inhibition of human HCK catalytic domain expressed in baculovirus assessed as substrate phosphorylation using fluorescence-labelled peptides as substrate at 9 uM after 90 mins by microfluidic peptide phosphorylation assay
# [6] = target: Ribosomal protein S6 kinase alpha-5 (Homo sapiens) (UniProt O75582); assay: Inhibition of human full length MSK1 expressed in baculovirus assessed as substrate phosphorylation using fluorescence-labelled peptides as substrate at 9 uM after 90 mins by microfluidic peptide phosphorylation assay
# [7] = target: T4, MAP kinase-activated protein kinase 5 (Homo sapiens) (UniProt Q8IW41); assay: Inhibition of human full length PRAK expressed in baculovirus assessed as substrate phosphorylation using fluorescence-labelled peptides as substrate at 2 uM after 90 mins by microfluidic peptide phosphorylation assay
# T4 sequence (whole entry): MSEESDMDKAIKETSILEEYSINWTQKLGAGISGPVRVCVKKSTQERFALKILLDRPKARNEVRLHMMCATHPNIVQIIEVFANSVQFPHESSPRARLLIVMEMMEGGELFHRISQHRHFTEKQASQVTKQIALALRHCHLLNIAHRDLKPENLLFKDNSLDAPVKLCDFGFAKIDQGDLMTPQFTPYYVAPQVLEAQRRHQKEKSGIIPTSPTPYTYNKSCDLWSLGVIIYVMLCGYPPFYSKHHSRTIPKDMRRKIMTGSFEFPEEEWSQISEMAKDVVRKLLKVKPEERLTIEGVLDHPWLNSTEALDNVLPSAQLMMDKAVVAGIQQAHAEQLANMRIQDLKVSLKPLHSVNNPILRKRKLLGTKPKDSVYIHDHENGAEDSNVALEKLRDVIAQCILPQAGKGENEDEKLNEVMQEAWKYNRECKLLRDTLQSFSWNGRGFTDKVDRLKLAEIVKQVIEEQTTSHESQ
# [8] = target: Fibroblast growth factor receptor 1 (Homo sapiens) (UniProt P11362); assay: Inhibition of human FGFR1 catalytic domain expressed in baculovirus assessed as substrate phosphorylation using fluorescence-labelled peptides as substrate at 2 uM after 90 mins by microfluidic peptide phosphorylation assay
# [9] = target: Serine/threonine-protein kinase MARK1 (Homo sapiens) (UniProt Q9P0L2); assay: Inhibition of human full length MARK1 expressed in baculovirus assessed as substrate phosphorylation using fluorescence-labelled peptides as substrate at 2 uM after 90 mins by microfluidic peptide phosphorylation assay
# [10] = target: Rho-associated protein kinase 2 (Homo sapiens) (UniProt O75116); details: 0.1 uM
# Description: Inhibition of human ROCK2 catalytic domain expressed in baculovirus assessed as substrate phosphorylation using fluorescence-labelled peptides as substrate at 0.1 uM after 90 mins by microfluidic peptide phosphorylation assay
# [11] = target: Casein kinase I isoform alpha (Homo sapiens) (UniProt P48729); assay: Inhibition of human full length CSNK1A1 expressed in baculovirus assessed as substrate phosphorylation using fluorescence-labelled peptides as substrate at 95 uM after 90 mins by microfluidic peptide phosphorylation assay
# [12] = target: T4, MAP kinase-activated protein kinase 5 (Homo sapiens); assay: Inhibition of human full length PRAK expressed in baculovirus assessed as substrate phosphorylation using fluorescence-labelled peptides as substrate at […] after 90 mins by microfluidic peptide phosphorylation assay
# [13] = target: Ribosomal protein S6 kinase alpha-3 (Homo sapiens) (UniProt P51812); assay: Inhibition of human full length RSK2 expressed in baculovirus assessed as substrate phosphorylation using fluorescence-labelled peptides as substrate at 8 uM after 90 mins by microfluidic peptide phosphorylation assay
# [14] = target: Ribosomal protein S6 kinase alpha-4 (Homo sapiens) (UniProt O75676); assay: Inhibition of human full length MSK2 expressed in baculovirus assessed as substrate phosphorylation using fluorescence-labelled peptides as substrate at 1000 uM after 90 mins by microfluidic peptide phosphorylation assay
# Ribosomal protein S6 kinase alpha-4 (Homo sapiens), sequence (O75676 whole entry, looked up): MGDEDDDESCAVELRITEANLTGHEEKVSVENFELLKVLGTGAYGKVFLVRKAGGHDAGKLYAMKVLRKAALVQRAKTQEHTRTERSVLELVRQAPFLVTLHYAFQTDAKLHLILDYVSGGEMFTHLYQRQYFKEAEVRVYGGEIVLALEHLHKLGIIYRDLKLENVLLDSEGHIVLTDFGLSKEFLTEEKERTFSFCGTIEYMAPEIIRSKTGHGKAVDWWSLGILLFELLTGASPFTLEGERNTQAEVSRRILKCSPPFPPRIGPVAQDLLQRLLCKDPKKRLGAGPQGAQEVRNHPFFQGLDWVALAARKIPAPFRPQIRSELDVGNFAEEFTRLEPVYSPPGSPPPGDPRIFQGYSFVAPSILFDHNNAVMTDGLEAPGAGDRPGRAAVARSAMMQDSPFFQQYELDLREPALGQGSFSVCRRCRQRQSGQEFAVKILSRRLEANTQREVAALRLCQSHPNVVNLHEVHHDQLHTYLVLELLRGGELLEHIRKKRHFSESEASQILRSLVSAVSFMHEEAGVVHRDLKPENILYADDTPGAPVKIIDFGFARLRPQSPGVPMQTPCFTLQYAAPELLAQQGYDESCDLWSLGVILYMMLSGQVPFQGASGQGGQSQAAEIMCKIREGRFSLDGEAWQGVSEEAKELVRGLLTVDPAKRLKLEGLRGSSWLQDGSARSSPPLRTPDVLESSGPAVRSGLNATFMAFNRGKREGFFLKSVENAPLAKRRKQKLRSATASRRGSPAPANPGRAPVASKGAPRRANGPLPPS
# Rho-associated protein kinase 2 (Homo sapiens), sequence (O75116 whole entry, looked up, the tested form may be a part, canonical isoform): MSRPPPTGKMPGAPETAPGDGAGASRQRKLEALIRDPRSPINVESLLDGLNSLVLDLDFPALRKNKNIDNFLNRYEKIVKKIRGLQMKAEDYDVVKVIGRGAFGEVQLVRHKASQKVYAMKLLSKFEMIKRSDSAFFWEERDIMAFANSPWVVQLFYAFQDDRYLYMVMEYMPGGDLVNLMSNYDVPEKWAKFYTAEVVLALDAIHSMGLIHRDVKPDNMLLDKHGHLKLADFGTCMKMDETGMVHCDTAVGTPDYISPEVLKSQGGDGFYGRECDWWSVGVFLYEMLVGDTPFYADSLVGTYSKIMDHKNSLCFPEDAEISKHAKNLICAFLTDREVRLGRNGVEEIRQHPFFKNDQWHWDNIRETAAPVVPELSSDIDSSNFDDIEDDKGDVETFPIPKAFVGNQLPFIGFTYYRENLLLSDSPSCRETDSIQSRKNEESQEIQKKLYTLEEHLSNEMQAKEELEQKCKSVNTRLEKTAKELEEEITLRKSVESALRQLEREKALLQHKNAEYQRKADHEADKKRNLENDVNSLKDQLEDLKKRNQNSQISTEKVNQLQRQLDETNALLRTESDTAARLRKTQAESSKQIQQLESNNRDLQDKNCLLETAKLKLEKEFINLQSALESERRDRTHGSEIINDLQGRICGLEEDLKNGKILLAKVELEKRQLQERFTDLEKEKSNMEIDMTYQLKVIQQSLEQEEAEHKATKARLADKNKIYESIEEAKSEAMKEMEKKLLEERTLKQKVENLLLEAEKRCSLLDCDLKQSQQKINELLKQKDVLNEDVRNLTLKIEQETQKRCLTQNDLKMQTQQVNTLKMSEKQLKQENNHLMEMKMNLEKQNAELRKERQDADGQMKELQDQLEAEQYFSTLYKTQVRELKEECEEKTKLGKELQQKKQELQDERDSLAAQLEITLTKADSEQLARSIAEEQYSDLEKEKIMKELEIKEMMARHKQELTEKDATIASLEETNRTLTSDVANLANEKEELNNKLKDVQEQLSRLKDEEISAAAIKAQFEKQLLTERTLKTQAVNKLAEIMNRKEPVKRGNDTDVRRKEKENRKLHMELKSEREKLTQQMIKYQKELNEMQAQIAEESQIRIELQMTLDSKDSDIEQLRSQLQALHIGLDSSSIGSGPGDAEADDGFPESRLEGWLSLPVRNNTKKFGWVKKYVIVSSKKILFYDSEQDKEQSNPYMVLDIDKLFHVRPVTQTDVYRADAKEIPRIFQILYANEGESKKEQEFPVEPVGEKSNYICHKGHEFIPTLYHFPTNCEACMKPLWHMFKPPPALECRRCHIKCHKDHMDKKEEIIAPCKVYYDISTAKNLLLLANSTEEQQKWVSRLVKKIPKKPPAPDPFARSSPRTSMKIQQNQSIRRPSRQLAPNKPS
# Ribosomal protein S6 kinase alpha-5 (Homo sapiens), sequence (O75582 whole entry, looked up): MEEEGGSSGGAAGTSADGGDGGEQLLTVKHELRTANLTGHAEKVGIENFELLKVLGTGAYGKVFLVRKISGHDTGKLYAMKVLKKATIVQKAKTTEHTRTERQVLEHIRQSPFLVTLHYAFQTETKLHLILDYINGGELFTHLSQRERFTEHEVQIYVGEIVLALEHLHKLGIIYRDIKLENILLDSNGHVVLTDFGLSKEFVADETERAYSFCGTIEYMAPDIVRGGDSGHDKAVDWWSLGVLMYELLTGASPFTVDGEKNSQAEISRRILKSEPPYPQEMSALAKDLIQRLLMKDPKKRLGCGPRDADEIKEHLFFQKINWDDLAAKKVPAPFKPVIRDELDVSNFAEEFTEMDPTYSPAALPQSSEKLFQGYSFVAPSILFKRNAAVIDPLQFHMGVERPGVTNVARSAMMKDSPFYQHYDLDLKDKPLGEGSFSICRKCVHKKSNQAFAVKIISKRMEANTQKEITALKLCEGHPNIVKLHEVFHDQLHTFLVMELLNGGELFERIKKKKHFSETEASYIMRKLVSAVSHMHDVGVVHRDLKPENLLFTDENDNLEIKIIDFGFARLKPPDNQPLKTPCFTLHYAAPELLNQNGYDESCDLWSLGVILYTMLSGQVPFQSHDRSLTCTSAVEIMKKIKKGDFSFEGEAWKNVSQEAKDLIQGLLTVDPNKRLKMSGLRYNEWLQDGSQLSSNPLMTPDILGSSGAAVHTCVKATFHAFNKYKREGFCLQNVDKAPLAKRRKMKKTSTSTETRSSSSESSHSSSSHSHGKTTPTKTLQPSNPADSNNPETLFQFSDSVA
# Tyrosine-protein kinase HCK (Homo sapiens), sequence (P08631 2-526 limits assumed): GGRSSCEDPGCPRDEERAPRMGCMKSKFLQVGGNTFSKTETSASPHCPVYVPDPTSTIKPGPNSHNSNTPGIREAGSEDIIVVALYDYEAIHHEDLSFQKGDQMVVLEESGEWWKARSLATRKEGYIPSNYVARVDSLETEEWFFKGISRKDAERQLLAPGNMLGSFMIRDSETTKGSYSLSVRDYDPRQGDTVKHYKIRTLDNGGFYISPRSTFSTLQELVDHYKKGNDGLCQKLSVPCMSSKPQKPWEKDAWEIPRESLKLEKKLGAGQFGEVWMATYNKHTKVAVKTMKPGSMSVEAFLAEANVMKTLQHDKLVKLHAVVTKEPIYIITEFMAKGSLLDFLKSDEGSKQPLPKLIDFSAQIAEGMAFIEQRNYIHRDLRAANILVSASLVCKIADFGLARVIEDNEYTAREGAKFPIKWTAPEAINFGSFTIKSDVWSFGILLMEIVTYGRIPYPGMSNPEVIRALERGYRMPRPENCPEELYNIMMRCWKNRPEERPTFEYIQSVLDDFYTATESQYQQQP
# Serine/threonine-protein kinase MARK1 (Homo sapiens), sequence (Q9P0L2 whole entry, looked up): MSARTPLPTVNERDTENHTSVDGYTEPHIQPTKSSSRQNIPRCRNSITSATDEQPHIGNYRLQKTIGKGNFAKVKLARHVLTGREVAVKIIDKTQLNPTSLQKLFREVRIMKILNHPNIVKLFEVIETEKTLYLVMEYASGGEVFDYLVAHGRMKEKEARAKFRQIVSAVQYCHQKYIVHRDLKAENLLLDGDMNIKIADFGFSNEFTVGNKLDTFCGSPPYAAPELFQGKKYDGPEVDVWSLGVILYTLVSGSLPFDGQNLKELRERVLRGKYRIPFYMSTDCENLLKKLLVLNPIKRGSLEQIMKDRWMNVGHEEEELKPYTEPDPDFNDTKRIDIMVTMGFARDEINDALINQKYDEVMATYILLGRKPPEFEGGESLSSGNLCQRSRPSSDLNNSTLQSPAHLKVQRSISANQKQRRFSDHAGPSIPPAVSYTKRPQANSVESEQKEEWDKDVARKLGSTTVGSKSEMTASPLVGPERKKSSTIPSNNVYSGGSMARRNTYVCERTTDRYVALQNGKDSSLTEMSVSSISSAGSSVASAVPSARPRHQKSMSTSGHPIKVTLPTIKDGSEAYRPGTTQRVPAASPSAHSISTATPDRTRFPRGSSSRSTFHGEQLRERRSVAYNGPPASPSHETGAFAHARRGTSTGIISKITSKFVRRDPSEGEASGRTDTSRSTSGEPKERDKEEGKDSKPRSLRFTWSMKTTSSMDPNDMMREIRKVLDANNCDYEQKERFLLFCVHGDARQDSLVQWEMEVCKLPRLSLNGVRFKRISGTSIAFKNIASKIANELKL
# Casein kinase I isoform alpha (Homo sapiens), sequence (P48729 2-337 limits assumed): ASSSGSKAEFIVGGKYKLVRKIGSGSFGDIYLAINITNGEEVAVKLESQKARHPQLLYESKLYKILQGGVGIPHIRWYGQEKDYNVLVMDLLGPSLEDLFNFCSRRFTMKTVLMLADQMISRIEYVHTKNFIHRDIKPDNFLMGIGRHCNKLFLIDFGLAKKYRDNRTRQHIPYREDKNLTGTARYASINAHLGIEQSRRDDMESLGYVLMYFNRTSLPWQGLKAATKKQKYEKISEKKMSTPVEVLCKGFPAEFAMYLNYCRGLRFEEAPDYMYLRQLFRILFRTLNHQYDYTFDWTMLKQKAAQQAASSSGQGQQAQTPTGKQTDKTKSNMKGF
smiles,measurement,setting,value
Clc1ccc(C2(c3ccc(-c4ncnc5[nH]cnc45)cc3)CCNCC2)cc1,inhibition,[1],73.5%
same,inhibition,[2],49%
c1nc(N2CCOCC2)c2nc[nH]c2n1,inhibition,[3],101%
same,inhibition,[4],62%
NCC1CN(c2ncnc3[nH]c4cnccc4c23)CCO1 (centres undefined),inhibition,[5],29%
same,inhibition,[6],60%
NC1CCN(c2ncnc3[nH]ccc23)CC1,inhibition,[7],7%
same,inhibition,[8],1.5%
same,inhibition,[9],34.5%
C[C@H](CN(C)C)Oc1nc(Nc2cc3cccc(Cl)c3cn2)cnc1C#N,inhibition,[10],0%
NCCc1ccc(-c2ncnc3[nH]cnc23)cc1,inhibition,[11],53.5%
COC(=O)c1cnc(Nc2cnc(C#N)cn2)cc1NCC1CCNCC1,inhibition,[12],4%
NCC1CCN(c2ncnc3[nH]ccc23)CC1,inhibition,[13],32%
c1cnc2[nH]ccc2c1,inhibition,[14],81%
